Read-outs that look alike come from different tables or passages of the source.

The target in assay [1] is K-Ras^G12C : hSOS1 interaction (Homo sapiens, UniProt Q07889). Nature of the assay: Biochemical assay 1: K-Ras^G12C interaction assay with hSOS1 (HTRF). Format: binding. The following applies: for IC50: read-out: Assay 1 (KRAS-SOS Interaction) activity expressed as IC50. Background: TR-FRET usually uses a lanthanide donor and a delayed reading to cut background.
Assay [2] has as its target Epidermal Growth Factor Receptor (EGFR) (Homo sapiens (Human), UniProt P00533). Nature of the assay: EGFR kinase assay (TR-FRET). The following applies: read-out: EGFR kinase inhibition IC50. In kind it is biochemical. The procedure, abridged: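 Read-out is the 665/620 nm HTRF ratio, from a Tb-cryptate anti-phosphotyrosine antibody and streptavidin-XL665 bound to phosphorylated biotin-peptide substrate. The enzyme, A431-derived EGFR (~3 U/ml), was given 15 min compound pre-binding at 22° C in Hepes pH 7.0 with Mg2+/Mn2+ before reaction.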

Sequence of Epidermal Growth Factor Receptor (EGFR) (P00533 25-1210): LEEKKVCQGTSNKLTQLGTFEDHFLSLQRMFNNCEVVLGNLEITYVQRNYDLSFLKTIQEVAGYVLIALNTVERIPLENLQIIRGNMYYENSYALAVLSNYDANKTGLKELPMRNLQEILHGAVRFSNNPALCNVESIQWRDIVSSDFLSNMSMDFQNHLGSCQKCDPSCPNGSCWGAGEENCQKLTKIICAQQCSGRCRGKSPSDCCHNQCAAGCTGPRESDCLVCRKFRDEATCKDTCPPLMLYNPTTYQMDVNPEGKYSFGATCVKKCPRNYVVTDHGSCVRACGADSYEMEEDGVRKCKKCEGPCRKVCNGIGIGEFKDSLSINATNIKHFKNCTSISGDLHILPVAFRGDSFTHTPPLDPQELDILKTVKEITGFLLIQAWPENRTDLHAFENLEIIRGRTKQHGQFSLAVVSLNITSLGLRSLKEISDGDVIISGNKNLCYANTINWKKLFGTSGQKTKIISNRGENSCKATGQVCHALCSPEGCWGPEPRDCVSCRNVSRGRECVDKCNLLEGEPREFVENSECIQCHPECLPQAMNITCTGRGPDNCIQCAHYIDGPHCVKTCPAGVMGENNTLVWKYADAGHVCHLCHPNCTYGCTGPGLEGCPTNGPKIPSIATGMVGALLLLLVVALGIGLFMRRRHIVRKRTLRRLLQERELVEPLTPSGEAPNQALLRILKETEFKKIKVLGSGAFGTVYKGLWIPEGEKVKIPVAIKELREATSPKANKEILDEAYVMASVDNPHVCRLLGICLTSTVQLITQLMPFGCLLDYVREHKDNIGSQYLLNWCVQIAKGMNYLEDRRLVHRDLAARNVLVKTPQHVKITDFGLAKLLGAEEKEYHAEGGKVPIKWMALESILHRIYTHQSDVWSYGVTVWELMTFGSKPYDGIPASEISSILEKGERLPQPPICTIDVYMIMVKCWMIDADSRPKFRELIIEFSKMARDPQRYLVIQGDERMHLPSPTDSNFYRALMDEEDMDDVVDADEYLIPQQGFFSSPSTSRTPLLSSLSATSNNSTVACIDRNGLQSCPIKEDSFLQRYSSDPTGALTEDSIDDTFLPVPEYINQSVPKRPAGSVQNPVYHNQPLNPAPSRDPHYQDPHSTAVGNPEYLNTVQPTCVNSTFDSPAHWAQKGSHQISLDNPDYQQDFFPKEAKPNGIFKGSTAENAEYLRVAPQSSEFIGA

`COc1cc2nc(C)nc(NC(C)c3cccc(Oc4ccccc4)c3)c2cc1OC` (single isomer, unassigned; enantiomer 1) [Example 228, 6,7-dimethoxy-2-methyl-N-[1-(3-phenoxyphenyl)ethyl]quinazolin-4-amine, Enantiomer 1]: the IC50 – broadly, the point on the concentration scale where inhibition reaches its midpoint – in assay [1] was determined as 569 nM; in assay [2] (unit inferred) it was 0.341 µM.

Turning to `COc1cc2nc(C)nc(NC(C)c3cccc4cccnc34)c2cc1OC` (single isomer, unassigned; enantiomer 1) [Example 230, 6,7-dimethoxy-2-methyl-N-[1-(quinolin-8-yl)ethyl]quinazolin-4-amine, Enantiomer 1], the IC50 in assay [1] is 4900 nM; in assay [2] (values given in μM) it was above 20 µM.

For the molecule `COc1cc2nc(C)nc(N[C@H](C)c3cccc(Cl)c3)c2cc1OC` [Example 2, N-[(1R)-1-(3-chlorophenyl)ethyl]-6,7-dimethoxy-2-methylquinazolin-4-amine], the 50% inhibitory concentration (IC50) in assay [1] was determined as 127 nM; in assay [2] (unit inferred), 16.3 µM.

With `COC(=O)c1cc2c(C(C)Nc3nc(C)nc4cc(OC)c(OC)cc34)cccc2s1` (stereo not shown) [Example 3, methyl 4-{1-[(6,7-dimethoxy-2-methylquinazolin-4-yl)amino]ethyl}-1-benzothiophene-2-carboxylate], the half-maximal inhibitory concentration (IC50) in assay [1] was 113 nM; in assay [2] (values given in μM) it was above 20 µM.

In the case of `COc1cc2nc(C)nc(NC(C)c3cccc4ccoc34)c2cc1OC` (stereo not shown) [Example 4, N-[1-(1-benzofuran-7-yl)ethyl]-6,7-dimethoxy-2-methylquinazolin-4-amine], the IC50 in assay [1] is 161 nM; in assay [2] (values given in μM), above 20 µM.

With `COc1cc2nc(C)nc(NC(C)c3ccc(F)c4[nH]ncc34)c2cc1OC` (stereo not shown) [Example 5, N-[1-(7-fluoro-1H-indazol-4-yl)ethyl]-6,7-dimethoxy-2-methylquinazolin-4-amine], the half-maximal inhibitory concentration (IC50) in assay [1] is 1710 nM; in assay [2] (values given in μM), above 20 µM.

Take `COc1cc2nc(C)nc(NC(C)c3cc(F)cc4[nH]ncc34)c2cc1OC` (stereo not shown) [Example 6, N-[1-(6-fluoro-1H-indazol-4-yl)ethyl]-6,7-dimethoxy-2-methylquinazolin-4-amine]: the figures for the IC50 in assay [1] and in assay [2] (values given in μM) were 2280 nM and above 20 µM, respectively.

`COc1cc2nc(C)nc(NC(C)c3cccc4cn(C)nc34)c2cc1OC` (stereo not shown) [Example 8, 6,7-dimethoxy-2-methyl-N-[1-(2-methyl-2H-indazol-7-yl)ethyl]quinazolin-4-amine]: the IC50 in assay [1] was 18200 nM; in assay [2] (values given in μM), above 20 µM.

Take `COc1cc2nc(C)nc(NC(C)c3cccc4nn(C)cc34)c2cc1OC` (stereo not shown) [Example 9, 6,7-dimethoxy-2-methyl-N-[1-(2-methyl-2H-indazol-4-yl)ethyl]quinazolin-4-amine]: the IC50 in assay [1] was 1520 nM; in assay [2] (values given in μM), above 20 µM.

Turning to `COc1cc2nc(C)nc(NC(C)c3cccc4cnn(C)c34)c2cc1OC` (stereo not shown) [Example 10, 6,7-dimethoxy-2-methyl-N-[1-(1-methyl-1H-indazol-7-yl)ethyl]quinazolin-4-amine], the half-inhibitory concentration (IC50) in assay [1] was 1180 nM; in assay [2] (values given in μM), above 20 µM.

As for `COc1cc2nc(C)nc(NC(C)c3cccc4c3CCCC4)c2cc1OC` (stereo not shown) [Example 11, 6,7-dimethoxy-2-methyl-N-[1-(5,6,7,8-tetrahydronaphthalen-1-yl)ethyl]quinazolin-4-amine], the 50% inhibitory concentration (IC50) was 203 nM in assay [1] and above 20 µM in assay [2] (values given in μM).

On to `COc1cc2nc(C)nc(N[C@H](C)c3ccc(F)cc3)c2cc1OC` [Example 12, N-[(1R)-1-(4-fluorophenyl)ethyl]-6,7-dimethoxy-2-methylquinazolin-4-amine], for which the IC50 in assay [1] is 335 nM; in assay [2] (values given in μM), above 20 µM.

Regarding `COc1cc2nc(C)nc(NC(C)c3cccc4[nH]nc(C)c34)c2cc1OC` (stereo not shown) [Example 13, 6,7-dimethoxy-2-methyl-N-[1-(3-methyl-1H-indazol-4-yl)ethyl]quinazolin-4-amine], the IC50 in assay [1] was 2020 nM; in assay [2] (values given in μM), above 20 µM.

For `COc1cc2nc(C)nc(NC(C)c3cc4cccc(O)c4o3)c2cc1OC` (stereo not shown) [Example 28, 2-{-[(6,7-dimethoxy-2-methyquinazolin-4-yl)amino]ethyl}-1-benzofuran-7-ol], the inhibition (as a rule, the share of the control response that was lost under treatment) at 20 µM in assay [1] (read-out: Assay 1 (KRAS-SOS Interaction) activity expressed as % inhibition at 20 μM) stood at 40%. In addition, in assay [2] (values given in μM), the IC50 is above 20 µM.

Consider `COC(=O)c1ccccc1-c1ccc(C(C)Nc2nc(C)nc3cc(OC)c(OC)cc23)s1` (stereo not shown) [Example 178, methyl 2-(5-{1-[(6,7-dimethoxy-2-methylquinazolin-4-yl)amino]ethyl}thiophen-2-yl)benzoate], for which the figures for the 50% inhibitory concentration (IC50) in assay [1] and in assay [2] (values given in μM) were 1430 nM and above 20 µM, respectively.

Regarding `COc1cc2nc(C)nc(NC(C)c3ccc(-c4ccccc4CN4CCC(C(N)=O)CC4)s3)c2cc1OC` (stereo not shown) [Example 179, 1-[2-(5-{1-[(6,7-dimethoxy-2-methylquinazolin-4-yl)amino]ethyl}thiophen-2-yl)benzyl]piperidine-4-carboxamide], the IC50 in assay [1] is 90.4 nM; in assay [2] (values given in μM), above 20 µM.

Consider `COc1cc2nc(C)nc(NC(C)c3ccc(-c4ccccc4CCO)s3)c2cc1OC` (stereo not shown) [Example 180, 2-[2-(5-{1-[(6,7-dimethoxy-2-methylquinazolin-4-yl)amino]ethyl}thiophen-2-yl)phenyl]ethanol], for which the IC50 in assay [1] was 241 nM; in assay [2] (values given in μM), above 20 µM.

Regarding `COc1cc2nc(C)nc(NC(C)c3ccc(-c4cccc(CCO)c4)s3)c2cc1OC` (stereo not shown) [Example 181, 2-[3-(5-{1-[(6,7-dimethoxy-2-methylquinazolin-4-yl)amino]ethyl}thiophen-2-yl)phenyl]ethanol], the values for the IC50 in assay [1] and in assay [2] (values given in μM) were 3500 nM and above 20 µM, respectively.

With `COc1cc2nc(C)nc(NC(C)c3ccc(-c4ccccc4CN4CC5(COC5)C4)s3)c2cc1OC` (stereo not shown) [Example 182, 6,7-di methoxy-2-methyl-N-[1-{5-[2-(2-oxa-6-azaspiro[3.3]hept-6-ylmethyl)phenyl]thiophen-2-yl}ethyl]quinazolin-4-amine], the results for the half-maximal inhibitory concentration (IC50) in assay [1] and in assay [2] (values given in μM) were 51 nM and above 20 µM, respectively.

`COc1cc2nc(C)nc(NC(C)c3cc(C)c(Br)s3)c2cc1OC` (stereo not shown) [Example 183, N-[1-(5-bromo-4-methylthiophen-2-yl)ethyl]-6,7-dimethoxy-2-methylquinazolin-4-amine]: the values for the 50% inhibitory concentration (IC50) in assay [1] and in assay [2] (values given in μM) were 2110 nM and above 20 µM, respectively.

As for `COc1cc2nc(C)nc(NC(C)c3ccc(-c4ccccc4CN4CCCC4)s3)c2cc1OC` (stereo not shown) [Example 184, 6,7-dimethoxy-2-methyl-N-[1-{5-[2-(pyrrolidin-1-ylmethyl)phenyl]thiophen-2-yl}ethyl]quinazolin-4-amine], the values for the IC50 in assay [1] and in assay [2] (values given in μM) were 41.6 nM and above 20 µM, respectively.

In the case of `COc1cc2nc(C)nc(NC(C)c3ccc(-c4ccccc4CN4CCC[C@H]4CN(C)C)s3)c2cc1OC` (stereo partly drawn) [Example 185, N-[1-{5-[2-({(2S)-[(dimethylamino)methyl]pyrrolidin-1-yl}methyl)phenyl]thiophen-2-yl}ethyl]-6,7-dimethoxy-2-methylquinazolin-4-amine], the values for the IC50 in assay [1] and in assay [2] (values given in μM) were 78.8 nM and above 20 µM, respectively.

For the molecule `Cc1nc(N[C@H](C)c2cccc3ccccc23)c2ccccc2n1` [Example 186, 2-methyl-N-[(1R)-1-(naphthalen-1-yl)ethyl]quinazolin-4-amine], the IC50 in assay [1] was 9940 nM; in assay [2] (values given in μM), above 20 µM.

With `COc1cc2nc(C)nc(N[C@H](C)c3ccc(Br)cc3)c2cc1OC` [Example 187, N-[(1R)-1-(4-bromophenyl)ethyl]-6,7-dimethoxy-2-methylquinazolin-4-amine], the IC50 in assay [1] was 476 nM; in assay [2] (values given in μM) it was above 20 µM.

Turning to `COc1cc2nc(C)nc(N[C@H](C)c3ccc(S(C)(=O)=O)cc3)c2cc1OC` [Example 188, 6,7-dimethoxy-2-methyl-N-{(1R)-1-[4-(methylsulfonyl)phenyl]ethyl}quinazolin-4-amine], the IC50 is 15700 nM in assay [1] and above 20 µM in assay [2] (values given in μM).

`COc1cc2nc(C)nc(N[C@H](C)c3cccc(C)c3)c2cc1OC` [Example 190, 6,7-dimethoxy-2-methyl-N-[(1R)-1-(3-methylphenyl)ethyl]quinazolin-4-amine]: the IC50 in assay [1] was 175 nM; in assay [2] (values given in μM), above 20 µM.

As for `COc1cc2nc(C)nc(N[C@H](C)c3cccc(Br)c3)c2cc1OC` [Example 191, N-[(1R)-1-(3-bromophenyl)ethyl]-6,7-dimethoxy-2-methylquinazolin-4-amine], the IC50 in assay [1] was 174 nM; in assay [2] (values given in μM), above 20 µM.

Consider `COc1cc2nc(C)nc(N[C@H](C)c3ccc(C(N)=O)cc3)c2cc1OC` [Example 192, 4-{(1R)-1-[(6,7-dimethoxy-2-methylquinazolin-4-yl)amino]ethyl}benzamide], for which the IC50 was 4590 nM in assay [1] and above 20 µM in assay [2] (values given in μM).

Take `COc1cc2nc(C)nc(N[C@H](C)c3cccc(-c4ccccc4)c3)c2cc1OC` [Example 193, N-[(1R)-1-(biphenyl-3-yl)ethyl]-6,7-dimethoxy-2-methylquinazolin-4-amine]: the values for the IC50 in assay [1] and in assay [2] (values given in μM) were 416 nM and above 20 µM, respectively.

With `COc1cc2nc(C)nc(N[C@H](C)c3cccc(C#N)c3)c2cc1OC` [Example 194, 3-{(1R)-1-[(6,7-dimethoxy-2-methylquinazolin-4-yl)amino]ethyl}benzonitrile], the results for the IC50 in assay [1] and in assay [2] (values given in μM) were 493 nM and above 20 µM, respectively.

As for `COc1cc2nc(C)nc(N[C@H](C)c3ccc(C)cc3)c2cc1OC` [Example 195, 6,7-dimethoxy-2-methyl-N-[(1R)-1-(4-methylphenyl)ethyl]quinazolin-4-amine], the half-inhibitory concentration (IC50) in assay [1] is 300 nM; in assay [2] (values given in μM) it was above 20 µM.

Consider `COc1cc2nc(C)nc(N[C@H](C)c3ccc(-c4ccccc4)cc3)c2cc1OC` [Example 196, N-[(1R)-1-(biphenyl-4-yl)ethyl]-6,7-dimethoxy-2-methylquinazolin-4-amine], for which the figures for the 50% inhibitory concentration (IC50) in assay [1] and in assay [2] (values given in μM) were 2420 nM and above 20 µM, respectively.
